For series [1], the system named is isolated human erythrocytes. Description: cells. The series is classed as cell-based. The settings on record: Homo sapiens, Erythrocyte, 1 h, read-out: Hemolysis EC50. Summed up: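 Pooled human red cells, washed and diluted from a 0.22% stock suspension in TBS pH 7.4, were shaken with two-fold dilutions (1000 to 0.48 µg/ml) for 1 h at 37 °C. Released hemoglobin in the supernatant was read at OD405. EC50 came from a four-parameter logistic fit, with melittin as positive control.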

Series [2] in a line: Cytotoxicity colorimetric assay, HepG2. The series is classed as cell-based, human. On the set-up: Cytotoxicity HepG2, percent printed in parentheses after the concentration: concentration or dose not given beside the values. Particulars: human, HepG2 cells, one hour in serum-free media. The procedure:
(§1) This assay measures the bioreduction of a novel tetrazolium compound to a soluble formazan product by viable cells. HepG2 cells were seeded in 96 well plates at 3×10^4 cells/well in MEM medium with 10% fetal bovine serum (FBS) 24 hours prior to use. NIH/3T3 cells were seeded in 96 well plates at 2×10^4 cells/well in DMEM medium with 10% bovine calf serum (BCS) 24 hours prior to use. Cell monolayers were rinsed in serum-free media and incubated for one hour with test agent in serum-free media. After incubation, the media was replaced with serum supplemented media and live cells were measured using the Cell Titer 96 Aqueous […] Assay kit (Promega, Madison, Wis.). EC50 values were determined using a four parameter logistic equation: Y=Bottom+(Top-Bottom)/(1+10̂((LogEC50-X)*HillSlope)).

Series [3] concerns HepG2 cells. Description: Cytotoxicity colorimetric assay, HepG2. The series is classed as cell-based, human. On the set-up: Cytotoxicity HepG2, percent printed in parentheses after the concentration: concentration or dose not given beside the values. Particulars: at the concentration given. The procedure: as §1
Series [4] concerns Unfractionated heparin. Description: aPTT clotting assay, UFH 0.4 U/mL in plasma (Example 10). It is filed as biochemical. Particulars: unfractionated heparin 0.4 U/mL in plasma; aPTT clotting. The protocol: aPTT clotting Assay: Unfractionated heparin was mixed with plasma at a final concentration of 0.4 U/mL (or concentration which increases aPTT time to between 120 and 300 seconds). […] The ACL Elite Hemostasis analyzer (Beckman Coulter™) was used to add aPTT reagent (HemosIL SynthASil) to supplemented plasma. Clotting was initiated by addition of CaCl2 and time to clot was recorded.

Series [5] has as its system UFH. Description: FXa amidolytic assay (Example 10), UFH. The settings on record: read-out: Heparin FXa uM EC50; UFH 0.03 units/mL; human antithrombin, bovine Factor Xa.
Experimental: (§2) Two μl of test agent are added (range between 0.01 and 23 ug/ml) and incubated for 5 minutes at 23° C. Bovine Factor Xa was added to a final concentration of 0.636 nkat/mL and incubated for a further 10 minutes at 23° C.
Series [6] relates to enoxaparin. Description: FXa amidolytic assay (Example 10), enoxaparin. The settings on record: read-out: Enox FXa EC50; enoxaparin 0.1 ug/ml; human antithrombin, bovine Factor Xa.
Experimental: as §2
Series [7] deals with tinzaparin. Put plainly: FXa amidolytic assay (Example 10), tinzaparin. The settings on record: read-out: Tinzap FXa EC50; tinzaparin 0.1 ug/ml; human antithrombin, bovine Factor Xa.
Experimental: as §2
Series [8] concerns fondaparinux. Description: FXa amidolytic assay (Example 10), fondaparinux. The settings on record: for EC50: read-out: Fondap FXa EC50, fondaparinux 0.02 μg/mL, human antithrombin, bovine Factor Xa.
Experimental: as §2
The nature of series [9]: Cytotoxicity colorimetric assay, NIH/3T3. The series is classed as cell-based, mouse. Particulars: mouse, NIH/3T3 cells, one hour in serum-free media. The protocol:
as §1

Each structure is given as a SMILES string. ≈ marks a conversion by molar mass, not a printed value. Where two headings read alike, the source gives them in different places. Starred links: 1 amine or outer side, 2 acyl side, 3 side chain; linkers in the order of their positions; H or OH if unused. Non-standard residues stand in square brackets, D forms with d. Residues, ends and D or L forms follow the SMILES beside them. *: point of attachment. NH(3-CONH2-4-OMe-phenyl) = COc1ccc(N*)cc1C(N)=O; 3Abz(6-OMe) = COc1ccc(N[*:1])cc1C(=O)[*:2]; X1 = O=C(O)COc1ccc(N[*:1])cc1C(=O)[*:2]

As to `COc1ccc(NC(=O)[C@H](CCCCN)NC(=O)c2cc(NC(=O)[C@H](CCCCN)NC(=O)c3cc(NC(=O)[C@H](CCCCN)NC(=O)c4cc(NC(=O)[C@@H](N)Cc5c[nH]c6ccccc56)ccc4OC)ccc3OC)ccc2OC)cc1C(N)=O` [Compound 246], the EC50 in series [1] (human RBC, 1 hour at 37° C.) was > 1000 µg/mL; in series [4] it was 2370 nM; in series [5] it was 0.11 µM; in series [6] it was 514 nM; in [7], 368 nM; in [8], 2540 nM. In addition, the EC50 at 1 h in [2] was determined as 60 µg/mL (≈ 50.7 µM). Further, the “Cytotoxicity HepG2, percent printed in parentheses after the concentration” value (shortened to “Cytotoxicity HepG2, percent printed”) in [3] is 80%.

For `COc1ccc(NC(=O)[C@H](CCCCN)NC(=O)c2cc(NC(=O)[C@H](CCCCN)NC(=O)c3cc(NC(=O)[C@H](CCCCN)NC(=O)c4cc(NC(=O)[C@@H](N)CCCCN)ccc4OC)ccc3OC)ccc2OC)cc1C(=O)N[C@@H](Cc1ccccc1)C(=O)O` [Compound 263], the EC50 in series [1] (human RBC, 1 hour at 37° C.) is > 1000 µg/mL; in series [4], 1250 nM; in [5] it was 0.179 µM; in series [6] it was 376 nM; in [7], 352 nM; in series [8], 1600 nM. The EC50 at 1 h in [2] amounted to 255 µg/mL (≈ 200 µM). In series [3], the “Cytotoxicity HepG2, percent printed” value worked out at 60%.

Consider `COc1ccc(NC(=O)[C@H](CCCCN)NC(=O)c2cc(NC(=O)[C@H](CCCCN)NC(=O)c3cc(NC(=O)[C@H](CCCCN)NC(=O)c4cc(NC(=O)[C@@H](N)CCCCN)ccc4OC)ccc3OC)ccc2OC)cc1C(=O)Nc1cccc(C(=O)O)c1` [Compound 275], for which, in series [2], the EC50 at 1 h amounted to 1000 µg/mL (≈ 802 µM). The “Cytotoxicity HepG2, percent printed” value in [3] is recorded as 50%. The EC50 in series [4] came out at 1720 nM; in [6] it was 134 nM; in series [7] it was 113 nM; in series [8], 579 nM.

For the molecule `COc1ccc(NC(=O)[C@@H](CCCNC(=N)N)NC(=O)c2cc(NC(=O)[C@@H](CCCNC(=N)N)NC(=O)c3cc(NC(=O)[C@@H](CCCNC(=N)N)NC(=O)c4cc(NC(C)=O)ccc4OC)ccc3OC)ccc2OC)cc1C(=O)N[C@H](Cc1c[nH]c2ccccc12)C(=O)O` [Compound 304], the EC50 is ~500 µg/mL (≈ 381 µM) in [1] (human RBC, 1 hour at 37° C.); > 10000 nM in series [4]; 0.242 µM in series [5]; 256 nM in [6]; 257 nM in [7]; 209 nM in series [8]. For the same molecule, in series [3], the “Cytotoxicity HepG2, percent printed” value worked out at 50%.

For `COc1ccc(NC(=O)[C@H](CCCCN)NC(=O)c2cc(NC(=O)[C@H](CCCCN)NC(=O)c3cc(NC(=O)[C@H](CCCCN)NC(=O)c4cc(NC(=O)[C@H](CCCCN)NC(=O)c5c[nH]c6ccccc56)ccc4OC)ccc3OC)ccc2OCC(=O)O)cc1C(N)=O` [Compound 350], the EC50 was > 1000 µg/mL in series [1] (human RBC, 1 hour at 37° C.); 627 nM in series [4]; 0.291 µM in series [5]; 147 nM in series [6]; 128 nM in [7]; 146 nM in [8]. In addition, the EC50 at 1 h in series [2] is 425 µg/mL (≈ 324 µM); in series [9], 150 µg/mL (≈ 114 µM).

In the case of `COc1ccc(NC(=O)[C@H](CCCCN)NC(=O)c2cc(NC(=O)[C@H](CCCCN)NC(=O)c3cc(NC(=O)[C@H](CCCCN)NC(=O)c4cc(NC(=O)[C@H](CCCCN)NC(=O)[C@@H](N)Cc5c[nH]c6ccccc56)ccc4OC)ccc3OC)ccc2OCC(=O)O)cc1C(N)=O` [Compound 352] (H-WK[3Abz(6-OMe)]K[3Abz(6-OMe)]K[X1]K-{NH(3-CONH2-4-OMe-phenyl)}), the EC50 in [1] (human RBC, 1 hour at 37° C.) was > 1000 µg/mL; in series [4], 2270 nM; in series [5], 0.287 µM; in series [6], 299 nM; in [7] it was 162 nM; in series [8] it was 934 nM. For the same molecule, the EC50 at 1 h in [2] is 758 µg/mL (≈ 559 µM); in [9], > 1000 µg/mL.

On to `COc1ccc(NC(=O)[C@H](CCCCN)NC(=O)c2cc(NC(=O)[C@H](CCCCN)NC(=O)c3cc(NC(=O)[C@H](CCCCN)NC(=O)c4cc(NC(=O)[C@H](CCCCN)NC(=O)c5ccccc5)ccc4OC)ccc3OC)ccc2OC)cc1C(N)=O` [Compound 353], for which the EC50 in series [1] was > 1000 µg/mL; in [4] it was 1630 nM; in [5] it was 0.198 µM; in [6], 123 nM; in series [7], 104 nM; in [8], 407 nM. For the same molecule, the EC50 at 1 h in series [2] was > 1000 µg/mL; in series [9], ~100 µg/mL (≈ 81.3 µM).

In the case of `COc1ccc(NC(=O)[C@H](CCCCN)NC(=O)c2cc(NC(=O)[C@H](CCCCN)NC(=O)c3cc(NC(=O)[C@H](CCCCN)NC(=O)c4cc(NC(=O)[C@H](CCCCN)NC(=O)c5ccccc5)ccc4OC)ccc3OC)ccc2OCC(=O)O)cc1C(N)=O` [Compound 354], the EC50 in [1] was > 1000 µg/mL; in [4] it was 2200 nM; in series [5], 0.214 µM; in series [6] it was 117 nM; in series [7] it was 109 nM; in [8], 202 nM. Besides, the EC50 at 1 h in series [2] and in [9] was > 1000 µg/mL throughout. Further, the “Potent LMWH-antagonists with superior anti-fondaparinux activity (summary)” value in [8] is “superior anti-fondaparinux activity”.

Consider `COc1ccc(NC(=O)[C@H](CCCCN)NC(=O)c2cc(NC(=O)[C@H](CCCCN)NC(=O)c3cc(NC(=O)[C@H](CCCCN)NC(=O)c4cc(NC(=O)[C@H](CCCCN)NC(=O)Cc5ccccc5)ccc4OC)ccc3OC)ccc2OC)cc1C(N)=O` [Compound 355], for which the EC50 in series [1] is > 1000 µg/mL; in [4], 1410 nM; in series [5], 0.147 µM; in series [6], 95 nM; in [7] it was 67 nM; in series [8], 800 nM. For the same molecule, the EC50 at 1 h stood at 133 µg/mL (≈ 107 µM) in series [2] and 52 µg/mL (≈ 41.8 µM) in series [9].

On to `COC(=O)c1ccc(C(=O)N[C@@H](CCCCN)C(=O)Nc2ccc(OC)c(C(=O)N[C@@H](CCCCN)C(=O)Nc3ccc(OC)c(C(=O)N[C@@H](CCCCN)C(=O)Nc4ccc(OC)c(C(=O)N[C@@H](CCCCN)C(=O)Nc5ccc(OC)c(C(N)=O)c5)c4)c3)c2)cc1` [Compound 359], for which the EC50 in [1] (human RBC, 1 hour at 37° C.) is > 1000 µg/mL; in series [4] it was 1390 nM; in series [5], 0.189 µM; in [6], 90 nM; in series [7], 73 nM; in series [8], 115 nM. Also, the EC50 at 1 h in series [2] and in series [9] was > 1000 µg/mL in each case.

For the molecule `COc1cc(OCC(N)=O)c(C(=O)N[C@H]2CC[C@H](NC(=O)c3cc(C(=O)NCCN(C)C)c(OCCCCCN)cc3OCCCCCN)CC2)cc1C(=O)N[C@H]1CC[C@H](NC(=O)c2cc(C(=O)NCCN(C)C)c(OCCCCCN)cc2OCCCCCN)CC1` [Compound 379], the EC50 in [1] (human RBC, 1 hour at 37° C.) was > 1000 µg/mL; in series [4], 1620 nM; in series [5], 0.13 µM; in series [6], 464 nM; in series [7], 95 nM; in [8] it was > 10000 nM. Also, the values for the concentration giving a half-maximal response (EC50) at 1 h in series [2] and in [9] were > 1000 µg/mL and 650 µg/mL (≈ 499 µM), respectively.

On to `COc1cc(OC)c(C(=O)N[C@H]2CC[C@@H](NC(=O)c3ccc(OCCCCCNC(=N)N)cc3OCCCCCNC(=N)N)CC2)cc1C(=O)N[C@H]1CC[C@@H](NC(=O)c2ccc(OCCCCCNC(=N)N)cc2OCCCCCNC(=N)N)CC1` [Compound 380], for which the EC50 in [1] (human RBC, 1 hour at 37° C.) was > 1000 µg/mL; in series [4], 1690 nM; in series [5], 0.164 µM; in series [6], 89 nM; in series [7], 71 nM; in series [8], 180 nM. Further, the EC50 at 1 h came to 81.3 µg/mL (≈ 67.8 µM) in series [2] and 43.2 µg/mL (≈ 36 µM) in series [9].

In the case of `COc1cc(OC)c(C(=O)N[C@H]2CC[C@@H](NC(=O)c3cc(C(=O)N[C@H]4CC[C@@H](NC(=O)c5cc(C(=O)NCCN)c(OC)cc5OC)CC4)c(OC)cc3OC)CC2)cc1C(=O)NCCN` [Compound 381], the EC50 in series [1] (human RBC, 1 hour at 37° C.) is 22.4 µg/mL (≈ 24.4 µM); in series [4] it was 2690 nM; in series [5], 0.777 µM; in series [6], 289 nM; in series [7], 274 nM; in [8], 493 nM. For the same molecule, the EC50 at 1 h is 1130 µg/mL (≈ 1230 µM) in [2] and 1080 µg/mL (≈ 1180 µM) in series [9].

A word on the EC50: it is the concentration needed to bring the measured effect to its halfway point.

These data come from patent publication US20110178104A1, “Anti-Heparin Compounds” (POLYMEDIX INC., priority 2010, published 2011).
